The record followed here is PubChem BioAssay (NCI).

Holding throughout (test): NCI anticancer screen, dose series, 48 h
Test [1] has as its system SNB-75 CNS.
Test [2] concerns KM20L2 colon.
For test [3], the system named is RPMI-8226 leukemia.
In test [4] the test system is MALME-3M melanoma.
Test [5] deals with SW-620 colon.
The test system of test [6] is UO-31 renal.
In test [7] the test system is HOP-92 NSCLC.
The test system of test [8] is HOP-18 NSCLC.
For test [9], the system named is OVCAR-4 ovarian.
Test [10] concerns MCF7 breast.

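A five-concentration, 48-hour dose response in 96-well plates underlies each endpoint, interpolated linearly between surrounding concentrations. Abbreviation: GI50, concentration required for 50% inhibition of growth. TGI denotes the concentration required for complete inhibition of growth.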

On to `CCN(CC)CC(C(=O)Nc1c(C)cccc1C)/C(C)=N/NC(N)=S` (stereo not drawn), for which the TGI in [1], in [2], in test [3], in [4], in test [5] and in [6] was more than 100 µM each time. Moreover, the TGI in [7] was more than 100 µM.

Regarding `CCc1cccc(C(C)C)c1C1C(=O)C(=O)N(c2nc3ccccc3s2)C(=O)C1=O`, the TGI in test [1], in test [8], in test [2], in test [3], in test [4] and in test [5] was more than 100 µM in each case. In addition, the TGI in test [6], in test [7] and in test [9] was more than 100 µM each time.

Regarding `Cc1nc2c(=O)n(C)c(=O)nc-2n(-c2ccc(Cl)cc2)c1C`, the TGI in test [1], in test [8], in test [2], in test [4], in test [5] and in [6] was more than 100 µM each time. The values for the TGI in test [7] and in test [9] were more than 100 µM and 84.4 µM, respectively.

For `COC(=O)c1c(OC(=O)c2ccccc2)noc1CC(=O)OC1C=CCCC1` (stereo not drawn), the TGI in [1], in test [8], in [2], in test [3], in [4] and in [5] was more than 100 µM throughout. Moreover, the TGI in [6] and in test [9] was more than 100 µM each time.

For the molecule `CC(=O)OC12CCCCC1C1(CCCC1)NC2=O` (stereo not drawn), the TGI in test [1], in test [8], in test [2], in test [3], in test [4] and in test [5] was more than 100 µM throughout. Besides, the TGI in test [6] and in [9] was more than 100 µM throughout.

`Cc1nn(C(=O)CC(=O)Nc2ccccc2Cl)c(C)c1N=Nc1ccccc1Cl`: the TGI in [1], in test [8], in [2], in test [4], in [5] and in test [6] was more than 100 µM throughout. Moreover, the TGI in [7] and in [9] was more than 100 µM throughout.

Turning to `O=S(O)CCCSSCCCCSSCCCS(=O)O`, the TGI in test [1], in test [8], in test [2], in test [4], in test [5] and in test [6] was more than 100 µM in each case. The same molecule came in with a TGI in test [9] of more than 100 µM.

For `CC/C(=C(\c1ccccc1)c1ccc(OCC[N+](C)(C)C)cc1)c1ccccc1`, the TGI in [1] amounted to 23.9 µM; in test [8], 26.2 µM; in [2] it was 31.1 µM; in [3] it was 28.8 µM; in [4], 28.6 µM; in test [5], 30 µM. The TGI in test [6] was found to be 38.7 µM; in test [9], 30.9 µM.

In the case of `CCCCCC1C2C(=O)NC(=O)C1C(=O)NC2=O` (stereo not drawn), the TGI in test [1], in test [2], in test [3], in test [4], in test [5] and in test [6] was more than 100 µM throughout. Also, the TGI in test [7] and in test [9] was more than 100 µM in each case.

Regarding `COc1ccc(/C=C(\NC(=O)c2ccccc2)c2nc3ccccc3[nH]2)cc1`, the TGI in [1] is 99.4 µM; in [2], more than 100 µM; in test [3], 69.9 µM; in test [4], more than 100 µM; in test [5], more than 100 µM; in test [6], 74.5 µM. Besides, the TGI in test [7] and in test [9] was more than 100 µM in each case.

As to `CC(=O)/C=C\C(=O)NNS(=O)(=O)c1ccc(C)cc1`, the TGI in test [1], in test [2], in test [3], in [4], in test [5] and in test [6] was more than 100 µM throughout. Further, the TGI in [7] and in [9] was more than 100 µM in each case.

With `O=C(Cc1nc2ccccc2s1)C(=O)Nc1ccccc1C(F)(F)F`, the TGI in [1], in test [8], in test [2], in test [4], in test [5] and in [6] was more than 100 µM each time. Also, the TGI in [7] and in [9] was more than 100 µM throughout.

For the molecule `COc1ccc(C2CC(c3ccc(OC)c(OC)c3)=NN2C(=O)c2cc(OC)c(OC)c(OC)c2)cc1` (stereo not drawn), the GI50 is 2.08 µM in test [1]; 4.27 µM in [3]; more than 91.3 µM in [4]; 3.7 µM in test [5]; 0.864 µM in test [6]; 0.168 µM in test [7]. Besides, the GI50 in test [10] was 0.647 µM; in test [9], more than 23.8 µM. The TGI in test [1] is more than 100 µM; in test [3] it was more than 100 µM; in test [4], more than 100 µM; in test [5] it was more than 100 µM; in test [6], more than 100 µM; in test [7], 0.841 µM. The TGI in [10] and in [9] was more than 100 µM each time.

For `O=C(/C=C/CN1CCCCC1)Nc1cc2c(Nc3ccc(F)c(Cl)c3F)ncnc2cc1OCCOC(F)F`, the GI50 is 0.265 µM in [1]; 1.01 µM in test [3]; 1.18 µM in test [4]; 1.49 µM in [5]; less than 0.0116 µM in test [6]; 0.0548 µM in test [7]. The GI50 in [10] is 1.35 µM; in [9], 1.23 µM. For the same molecule, the TGI was determined as 4.81 µM in [1]; 3.94 µM in test [3]; 2.91 µM in test [4]; 8.17 µM in [5]; 5.89 µM in test [6]; 1.12 µM in test [7]. In addition, the TGI came out at 10.3 µM in [10] and 13 µM in [9].

As to `CN(C)CCCn1c2c(c3ccc([N+](=O)[O-])cc3c1=O)C(=O)c1ccccc1-2`, the GI50 in test [1] is 5.24 µM; in test [3] it was 3.46 µM; in test [4], 7.86 µM; in test [5] it was 5.7 µM; in test [6], 4.28 µM; in [7], 9.78 µM. The results for the GI50 in test [10] and in [9] were 2.41 µM and 27.6 µM, respectively. Further, the TGI in test [1] is 19.3 µM; in test [3], 19.3 µM; in [4] it was more than 100 µM; in test [5], more than 100 µM; in test [6], 47.8 µM; in test [7], more than 100 µM. For the same molecule, the TGI in [10] and in test [9] was more than 100 µM throughout.

Turning to `CCOC(=O)C(Cc1ccc(N(CCCl)CCCl)cc1)NC(=O)C(CC(C)C)NC(C)=O` (stereo not drawn), the GI50 in test [1] was 1.94 µM; in test [3], 1.96 µM; in [4] it was 0.873 µM; in [5], 1.08 µM; in test [6], 0.512 µM; in test [7], 0.727 µM. The GI50 in test [10] was 0.699 µM; in test [9] it was 1.33 µM. Also, the TGI in test [1] came to 8.4 µM; in [3] it was 6.7 µM; in test [4] it was 2.74 µM; in test [5], 6.03 µM; in test [6], 2.91 µM; in [7] it was 2.82 µM. Moreover, the results for the TGI in test [10] and in test [9] were 15.4 µM and 3.97 µM, respectively.

For the molecule `COc1cc2c(cc1Nc1nc(Nc3ccsc3C(N)=O)c3cc[nH]c3n1)N(C(=O)CN(C)C)CCC2`, the GI50 is 1.49 µM in [1]; 1.24 µM in test [3]; 2.58 µM in test [4]; 0.0726 µM in test [5]; 3.35 µM in [6]; less than 0.0025 µM in test [7]. Further, the GI50 is 0.00343 µM in [10] and 2.98 µM in test [9]. Moreover, the TGI in test [1] is 3.92 µM; in test [3], 6.56 µM; in [4], 6.24 µM; in test [5] it was more than 25 µM; in test [6], 7.39 µM; in [7], 1.19 µM. Also, the TGI in [10] is more than 25 µM; in test [9] it was 9.03 µM.

As for `CC(=O)NC1C(=O)CC(c2ccccc2)N(C)C1c1ccccc1` (stereo not drawn), the TGI in test [1], in test [2], in [4], in test [5], in test [6] and in test [7] was more than 100 µM in each case. In addition, in [9], the TGI is more than 100 µM.

`COc1cc(C2C3=C(COC3=O)N(CCO)c3cc4c(cc32)CCC4)cc(OC)c1OC` (stereo not drawn): the GI50 in [1] was 0.123 µM; in test [3] it was 0.135 µM; in test [4], 0.598 µM; in test [5], 0.126 µM; in [6], 0.228 µM; in [7] it was 0.862 µM. Besides, the GI50 was 0.0986 µM in [10] and 0.14 µM in test [9]. For the same molecule, the TGI in test [1] is more than 32.5 µM; in test [3], more than 12.2 µM; in test [4] it was more than 32.5 µM; in test [5], more than 32.5 µM; in test [6], more than 17 µM; in test [7], more than 25.3 µM. Besides, the TGI is 23.8 µM in test [10] and more than 20.9 µM in test [9].

Take `CC1CCCC2(O1)OC1CC(=O)OC1C1=C2C(=O)c2ccccc2C1=O` (stereo not drawn): the TGI was found to be 23.7 µM in test [1]; 16 µM in test [2]; 4.27 µM in test [3]; 4.43 µM in [4]; 6.42 µM in test [5]; 5.41 µM in [6]. In test [9], this molecule gave a TGI of 3.83 µM.

For `Cn1cc(C2=C(c3cn(CCCSC(=N)N)c4ccccc34)C(=O)NC2=O)c2ccccc21`, the GI50 in [1] is 0.674 µM; in test [3], 4.61 µM; in [4], 3.84 µM; in test [5], 1.66 µM; in test [6] it was 5.59 µM; in [7], 3.83 µM. Moreover, the GI50 in test [10] was 0.799 µM; in test [9] it was 3.23 µM. The TGI came to 4.33 µM in test [1]; 10.3 µM in [3]; 8.34 µM in test [4]; 5.51 µM in test [5]; 16.2 µM in test [6]; 11.2 µM in test [7]. Moreover, the TGI in test [10] amounted to 3 µM; in test [9], 9.88 µM.

In the case of `COCC(O)CN1C(N)=NC(O)C1O` (stereo not drawn), the TGI in [1], in [8], in test [2], in [4], in test [5] and in [6] was more than 100 µM throughout. Moreover, the TGI in test [7] is more than 100 µM.

As to `CCN(CC)CCC(CNc1c2ccc(Cl)cc2nc2ccc(OC)cc12)c1ccccc1` (stereo not drawn), the GI50 is 1.49 µM in [1]; 1.33 µM in [3]; 1.87 µM in test [4]; 0.538 µM in test [5]; 1.3 µM in [6]; 1.79 µM in [7]. Besides, the GI50 in [10] was 0.505 µM; in test [9] it was 1.64 µM. Moreover, the TGI in test [1] is 2.83 µM; in test [3], 3.85 µM; in test [4], 3.56 µM; in test [5], 2.15 µM; in [6], 3.27 µM; in test [7], 3.86 µM. Besides, the TGI was 1.88 µM in [10] and 4.26 µM in test [9].

Regarding `CCOc1ccccc1Nc1nc(C)c(C(=O)CC(=O)C(=O)Nc2ccccc2)s1`, the TGI is 88.6 µM in [1]; more than 100 µM in test [8]; more than 100 µM in test [2]; more than 100 µM in test [4]; more than 100 µM in [5]; more than 100 µM in test [6]. Further, the TGI in test [7] and in test [9] was more than 100 µM in each case.

Consider `COc1cc(C2C(C(=O)Nc3ccc(Cl)c(Cl)c3)=C(C)NC(C)=C2C(=O)Nc2ccc(Cl)c(Cl)c2)ccc1O`, for which the TGI is 34.5 µM in test [1]; 54.7 µM in test [2]; 30.1 µM in test [3]; 27.3 µM in test [4]; 29 µM in test [5]; 25.6 µM in test [6]. Also, the figures for the TGI in test [7] and in test [9] were 11.1 µM and 23 µM, respectively.

With `O=C1C2=C(Nc3cc([N+](=O)[O-])ccc3N2)OC1c1c[nH]c2ccc(COc3ccccc3)cc12` (stereo not drawn), the TGI was 65.9 µM in [1]; more than 100 µM in test [3]; more than 100 µM in test [4]; more than 100 µM in test [5]; more than 100 µM in test [6]; more than 100 µM in test [7]. For the same molecule, the TGI in test [10] and in test [9] was more than 100 µM each time.
